Reference: ChEMBL document CHEMBL1201862, “PubChem BioAssay data set” (2004)
Active and inactive are the calls of the source.

Legend:
[1] = biological target: Intestinal-type alkaline phosphatase (Mus musculus, UniProt P24822); assay: PubChem AID 488875; type: functional
[2] = biological target: T1, Intestinal-type alkaline phosphatase (Homo sapiens, UniProt P09923); assay: human intestinal alkaline phosphatase activators, dose response, biochemical, luminescence, uHTS hits (AID 463120); type: functional
T1 sequence (P09923 whole entry): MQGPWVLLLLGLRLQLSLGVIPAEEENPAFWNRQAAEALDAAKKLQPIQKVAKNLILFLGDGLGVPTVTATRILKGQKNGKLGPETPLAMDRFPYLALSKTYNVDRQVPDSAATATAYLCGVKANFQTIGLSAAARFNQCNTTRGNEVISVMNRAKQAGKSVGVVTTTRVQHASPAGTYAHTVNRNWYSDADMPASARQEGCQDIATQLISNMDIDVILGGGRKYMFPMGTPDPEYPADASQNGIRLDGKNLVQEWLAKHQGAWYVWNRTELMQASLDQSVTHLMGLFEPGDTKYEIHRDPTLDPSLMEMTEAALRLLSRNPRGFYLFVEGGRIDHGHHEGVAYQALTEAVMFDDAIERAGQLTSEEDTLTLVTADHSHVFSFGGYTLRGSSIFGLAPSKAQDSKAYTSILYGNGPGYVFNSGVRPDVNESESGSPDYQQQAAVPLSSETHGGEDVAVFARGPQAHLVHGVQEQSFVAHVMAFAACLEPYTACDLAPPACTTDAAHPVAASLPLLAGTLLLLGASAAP

[3] = biological target: T1, Intestinal-type alkaline phosphatase; assay: human IAP activators, dose response, biochemical, luminescent, uHTS hits, set 2 (AID 488817); type: functional;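 note: potency of activators that raise enzyme activity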
[4] = biological target: T2, Alkaline phosphatase, tissue-nonspecific isozyme (Homo sapiens, UniProt P05186); assay: TNAP enzyme activators, dose response, selectivity assay for human IAP activator project, biochemical, TNAP isozyme, human IAP uHTS hits (AID 488886); type: functional;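 note: potency of compounds raising TNAP activity as a selectivity check on IAP activators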
T2 sequence (P05186 whole entry): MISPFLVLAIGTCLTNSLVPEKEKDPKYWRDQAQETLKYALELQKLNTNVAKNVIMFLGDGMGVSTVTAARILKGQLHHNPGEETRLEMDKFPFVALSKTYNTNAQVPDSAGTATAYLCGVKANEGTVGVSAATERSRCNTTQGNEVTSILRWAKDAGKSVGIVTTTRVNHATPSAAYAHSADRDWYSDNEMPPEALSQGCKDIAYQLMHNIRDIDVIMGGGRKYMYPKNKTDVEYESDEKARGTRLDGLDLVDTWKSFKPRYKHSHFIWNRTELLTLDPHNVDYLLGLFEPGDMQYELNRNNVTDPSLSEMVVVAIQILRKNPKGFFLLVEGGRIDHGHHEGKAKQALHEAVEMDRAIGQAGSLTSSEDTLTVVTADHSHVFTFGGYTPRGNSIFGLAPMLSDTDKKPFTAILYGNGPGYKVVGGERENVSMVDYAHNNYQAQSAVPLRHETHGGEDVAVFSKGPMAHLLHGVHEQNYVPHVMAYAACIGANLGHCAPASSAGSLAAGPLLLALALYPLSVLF

[5] = inhibitors of intracellular T. cruzi replication, confirmation, NIH3T3 host cells, beta-gal luminescence (AID 2044); type: functional, cell-based;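 note: intracellular parasites grown in NIH/3T3 mouse fibroblasts as host cells; luminescent beta-galactosidase reporter signal from transgenic T. cruzi replicating inside host cells; inhibitors lower the luminescence signal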
[6] = microbe, parasite or virus in culture; type: functional; conditions: Mycobacterium tuberculosis
[7] = cytotoxicity toward NIH3T3 fibroblasts, dose response, counter-screen, cell-based, ATP luminescence, mouse fibroblasts (AID 2010); type: functional;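 note: cells exposed to compound for about 90 hours before reading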
[8] = THP-1 cell cytotoxicity, dose response, cytotoxicity control for non-replicating M. tuberculosis project (AID 489025); type: functional
[9] = Vero E6 cell cytotoxicity, dose response, cytotoxicity control for non-replicating M. tuberculosis project, secondary assay (AID 492998); type: functional, VeroE6; conditions: Vero C1008
[10] = cells; type: functional
[11] = biological target: Nuclear receptor subfamily 5 group A member 2 (Homo sapiens, UniProt O00482); type: functional, cell-based;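 note: HEK293T cells transfected with LRH-1 and a StAR promoter luciferase reporter; potency for inhibitors that lower LRH-1 driven reporter light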
Nuclear receptor subfamily 5 group A member 2, sequence (O00482 whole entry): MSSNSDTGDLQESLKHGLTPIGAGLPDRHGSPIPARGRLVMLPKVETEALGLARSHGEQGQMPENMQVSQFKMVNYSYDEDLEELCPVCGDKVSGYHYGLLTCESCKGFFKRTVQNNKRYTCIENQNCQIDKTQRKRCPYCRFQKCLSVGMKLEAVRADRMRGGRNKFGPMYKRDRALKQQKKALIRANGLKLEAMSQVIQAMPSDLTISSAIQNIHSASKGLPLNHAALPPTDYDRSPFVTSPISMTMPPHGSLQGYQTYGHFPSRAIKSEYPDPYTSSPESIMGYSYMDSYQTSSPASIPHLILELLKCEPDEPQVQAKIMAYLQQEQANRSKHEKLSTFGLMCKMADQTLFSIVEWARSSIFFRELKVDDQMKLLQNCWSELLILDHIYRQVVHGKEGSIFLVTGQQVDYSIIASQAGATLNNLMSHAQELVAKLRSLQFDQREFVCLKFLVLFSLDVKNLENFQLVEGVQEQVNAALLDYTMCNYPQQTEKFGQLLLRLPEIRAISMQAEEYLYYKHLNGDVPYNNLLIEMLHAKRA

[12] = biological target: Steroidogenic factor 1 (Homo sapiens, UniProt Q13285); assay: Counterscreen for inverse agonists of the liver receptor homolog-1 (LRH-1; NR5A2): Luminescence-based cell-based high throughput dose response assay to identify inverse agonists of the Steroidogenic Factor 1 Nuclear Receptor (SF1; NR5A1).; type: functional
Steroidogenic factor 1, sequence (Q13285 whole entry): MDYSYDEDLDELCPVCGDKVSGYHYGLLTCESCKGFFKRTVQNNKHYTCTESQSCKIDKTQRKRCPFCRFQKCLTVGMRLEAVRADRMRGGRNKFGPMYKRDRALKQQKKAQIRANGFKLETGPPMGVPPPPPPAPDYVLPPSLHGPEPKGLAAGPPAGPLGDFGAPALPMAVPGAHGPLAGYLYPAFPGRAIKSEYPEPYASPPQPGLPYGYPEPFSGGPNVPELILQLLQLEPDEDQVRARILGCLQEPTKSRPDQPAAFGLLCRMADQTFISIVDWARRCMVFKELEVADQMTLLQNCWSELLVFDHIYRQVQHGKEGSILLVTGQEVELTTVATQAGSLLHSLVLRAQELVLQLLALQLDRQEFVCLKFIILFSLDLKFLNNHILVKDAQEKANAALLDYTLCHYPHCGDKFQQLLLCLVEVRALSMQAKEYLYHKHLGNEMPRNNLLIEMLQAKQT

[13] = StAR promoter reporter inhibition counter-screen, dose response, counter-screen for LRH-1 inverse agonist project, cell-based, luminescence, luciferase reporter (AID 651969); type: functional
[14] = cells
[15] = biological target: T3, Tyrosine-protein phosphatase non-receptor type 7 (Homo sapiens, UniProt P35236); type: functional
T3 sequence (P35236 whole entry): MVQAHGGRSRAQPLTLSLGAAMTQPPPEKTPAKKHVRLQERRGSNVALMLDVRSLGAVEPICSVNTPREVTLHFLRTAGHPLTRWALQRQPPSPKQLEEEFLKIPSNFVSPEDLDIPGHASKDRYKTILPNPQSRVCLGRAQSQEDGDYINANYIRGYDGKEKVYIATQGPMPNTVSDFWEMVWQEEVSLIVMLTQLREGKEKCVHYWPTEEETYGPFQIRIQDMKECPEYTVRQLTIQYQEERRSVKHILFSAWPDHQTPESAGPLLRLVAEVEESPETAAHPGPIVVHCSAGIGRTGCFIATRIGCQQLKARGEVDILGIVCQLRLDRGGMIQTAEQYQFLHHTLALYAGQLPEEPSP

[16] = biological target: T4, Tyrosine-protein phosphatase non-receptor type 22 (Homo sapiens, UniProt Q9Y2R2); type: functional
T4 sequence (Q9Y2R2 whole entry): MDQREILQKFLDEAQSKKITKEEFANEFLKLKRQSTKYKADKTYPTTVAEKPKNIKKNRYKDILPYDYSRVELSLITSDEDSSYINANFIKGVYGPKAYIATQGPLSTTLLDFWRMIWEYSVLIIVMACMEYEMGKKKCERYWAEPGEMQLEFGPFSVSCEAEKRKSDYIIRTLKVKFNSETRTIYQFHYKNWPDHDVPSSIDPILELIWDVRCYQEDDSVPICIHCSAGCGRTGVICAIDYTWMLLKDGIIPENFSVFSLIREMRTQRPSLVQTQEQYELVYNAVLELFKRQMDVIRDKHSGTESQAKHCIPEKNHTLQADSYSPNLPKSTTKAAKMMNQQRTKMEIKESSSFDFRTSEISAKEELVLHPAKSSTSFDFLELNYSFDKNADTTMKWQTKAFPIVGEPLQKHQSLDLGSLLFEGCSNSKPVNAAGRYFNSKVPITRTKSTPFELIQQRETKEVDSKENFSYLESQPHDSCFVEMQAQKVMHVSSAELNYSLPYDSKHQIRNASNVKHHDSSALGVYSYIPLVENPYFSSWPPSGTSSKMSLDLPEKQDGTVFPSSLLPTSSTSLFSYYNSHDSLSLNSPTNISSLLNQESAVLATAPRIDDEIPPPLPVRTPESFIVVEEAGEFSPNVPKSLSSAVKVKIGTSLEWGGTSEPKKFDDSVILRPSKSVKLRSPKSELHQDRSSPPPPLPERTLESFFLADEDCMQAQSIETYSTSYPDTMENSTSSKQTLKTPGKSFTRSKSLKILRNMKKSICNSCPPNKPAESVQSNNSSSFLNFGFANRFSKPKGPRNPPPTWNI

[17] = biological target: T4, Tyrosine-protein phosphatase non-receptor type 22; type: functional; remark: listed apart in the source
[18] = system: Vero; assay: cytotoxicity of synthesized analogs in Vero cells, SAR follow-up, cytotoxicity control for West Nile virus antiviral project, cell-based, set II (AID 2402); type: functional; conditions: Chlorocebus sabaeus
[19] = system: Vero; assay: West Nile virus CPE inhibition, SAR follow-up, cell-based, synthesized analogs (AID 2238); type: functional; conditions: Chlorocebus sabaeus
[20] = system: Vero; assay: West Nile virus antiviral activity, cell-based, CPE readout (AID 1621); type: functional; conditions: Chlorocebus sabaeus

Intestinal-type alkaline phosphatase (Mus musculus, UniProt P24822), sequence (P24822 whole entry): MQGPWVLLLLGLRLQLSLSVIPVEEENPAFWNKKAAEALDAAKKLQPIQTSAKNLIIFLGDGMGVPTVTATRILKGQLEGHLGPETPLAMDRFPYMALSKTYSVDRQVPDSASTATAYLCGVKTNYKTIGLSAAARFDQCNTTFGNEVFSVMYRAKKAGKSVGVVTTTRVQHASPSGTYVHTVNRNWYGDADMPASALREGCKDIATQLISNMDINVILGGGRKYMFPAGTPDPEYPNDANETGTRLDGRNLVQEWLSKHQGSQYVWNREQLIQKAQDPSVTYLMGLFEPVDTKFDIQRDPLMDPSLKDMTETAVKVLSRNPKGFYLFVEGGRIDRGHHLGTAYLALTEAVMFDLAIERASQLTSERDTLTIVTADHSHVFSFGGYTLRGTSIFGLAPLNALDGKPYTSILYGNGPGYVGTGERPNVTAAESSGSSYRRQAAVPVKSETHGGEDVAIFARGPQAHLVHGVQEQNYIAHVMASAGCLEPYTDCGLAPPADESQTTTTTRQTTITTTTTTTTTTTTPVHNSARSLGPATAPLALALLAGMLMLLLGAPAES

Which EC50 [1] does the source give for `CN(CC(=O)Nc1ccccc1F)CC(=O)Nc1ccc(F)c(F)c1F` here?
Its EC50 is > 100 µM (inactive).

And the EC50 [2]?
The EC50 was 15.8 µM (active).

What about the EC50 [3] of the same compound?
Its EC50 is 23.6 µM (active).

What about the EC50 [4] of the same compound?
Its EC50 is 23.3 µM (active).

Which EC50 [5] does the source give for `Cc1onc(-c2c(F)cccc2Cl)c1C(=O)ON=C(N)c1ccc([N+](=O)[O-])o1` here?
The EC50 was < 0.1 µM (active).

And the CC50 [6]?
Its CC50 is 21.2 µM (active).

What about the EC50 [7] of the same compound?
The EC50 was 12.7 µM (active).

And the CC50 [8]?
The CC50 was 17.8 µM (active).

What about the CC50 [9] of the same compound?
The CC50 was > 20 µM (active).

What about the IC50 [10] of the same compound?
Its IC50 is 4.6 µM (active).

What about the IC50 [11] of the same compound?
The IC50 was 0.143 µM (active).

What about the IC50 [12] of the same compound?
Its IC50 is 0.143 µM (active).

What about the IC50 [13] of the same compound?
Its IC50 is 35.9 µM (inactive).

What about the EC50 [14] of the same compound?
Its EC50 is 0.015 µM (active).

Which results are given for `N#CC(C(=O)NC1CCCCC1)=C1CCCCC1`?
IC50 [15]: > 79.4 µM (inactive); IC50 [16]: > 79.4 µM (inactive); IC50 [17]: > 79.4 µM (inactive)

What does the source list for `O=C(CSc1nc2ccccc2c(=O)n1-c1ccc(F)cc1F)Nc1ccc(N2CCOCC2)cc1`?
CC50 [18]: > 200 µM (active); IC50 [19]: 38.1 µM (active); IC50 [20]: 26.7 µM (active)
